Test results reported in US6548517B2, “Oxindole inhibitors of factor Xa” (Millennium Pharmaceuticals, Inc., priority 2000, dated 2003).

Each compound was assayed against T1, TRYPSIN (Bos taurus, UniProt P00760) (assay: trypsin protease inhibition assay). Details: not given.
T1 construct: gene PRSS1
T1 sequence (P00760 24-246): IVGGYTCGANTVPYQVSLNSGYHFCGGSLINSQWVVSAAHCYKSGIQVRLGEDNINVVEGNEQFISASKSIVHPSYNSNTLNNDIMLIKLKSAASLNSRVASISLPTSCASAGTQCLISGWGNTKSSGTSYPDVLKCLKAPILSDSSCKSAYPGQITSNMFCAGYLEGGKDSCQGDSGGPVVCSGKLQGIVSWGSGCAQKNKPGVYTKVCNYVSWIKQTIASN
Type: biochemical

Row | Compound | IC50
1 | CC(=N)N1CCC(Oc2ccc3c(c2)C(C(C)C)C(=O)N3Cc2ccc3ccc(C(=N)N)cc3c2)CC1 (stereo not drawn) [Example 8] | 4.92 nM
2 | CC(=N)N1CCC(Oc2ccc3c(c2)/C(=C/c2ccccc2)C(=O)N3Cc2ccc3ccc(C(=N)N)cc3c2)CC1 [Example 9] | 8.1 nM
3 | CC(=N)N1CCC(Oc2ccc3c(c2)/C(=C/c2ccc(F)cc2)C(=O)N3Cc2ccc3ccc(C(=N)N)cc3c2)CC1 [Example 10] | 10.4 nM
4 | CC(=N)N1CCC(Oc2ccc3c(c2)/C(=C/c2ccc(Cl)cc2)C(=O)N3Cc2ccc3ccc(C(=N)N)cc3c2)CC1 [Example 11] | 30.3 nM
5 | CC(=N)N1CCC(Oc2ccc3c(c2)/C(=C/C(=O)O)C(=O)N3Cc2ccc3ccc(C(=N)N)cc3c2)CC1 [Example 12] | 28.6 nM
6 | CC(=N)N1CCC(Oc2ccc3c(c2)C(CC(=O)O)C(=O)N3Cc2ccc3ccc(C(=N)N)cc3c2)CC1 (stereo not drawn) [Example 13] | 140 nM

The compounds below were run against TPA (Homo sapiens, UniProt P00750) (assay: TPA protease inhibition assay). Details: not given.
Sequence of TPA (P00750 36-562, species assumed): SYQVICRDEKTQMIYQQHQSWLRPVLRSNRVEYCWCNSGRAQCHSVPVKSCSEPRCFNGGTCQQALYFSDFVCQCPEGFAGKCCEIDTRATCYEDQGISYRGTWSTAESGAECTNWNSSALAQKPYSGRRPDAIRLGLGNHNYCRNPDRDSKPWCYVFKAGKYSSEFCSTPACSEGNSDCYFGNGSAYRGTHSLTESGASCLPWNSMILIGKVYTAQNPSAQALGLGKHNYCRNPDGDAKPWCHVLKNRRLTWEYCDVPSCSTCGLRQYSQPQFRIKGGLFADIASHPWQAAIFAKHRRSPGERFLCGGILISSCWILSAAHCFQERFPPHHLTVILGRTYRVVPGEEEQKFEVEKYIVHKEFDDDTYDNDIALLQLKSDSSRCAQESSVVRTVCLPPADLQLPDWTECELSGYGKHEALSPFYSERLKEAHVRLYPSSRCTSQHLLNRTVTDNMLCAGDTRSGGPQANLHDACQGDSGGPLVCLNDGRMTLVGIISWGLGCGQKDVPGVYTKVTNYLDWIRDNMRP
Type: biochemical

Row | Compound | IC50
7 | CC(=N)N1CCC(Oc2ccc3c(c2)C(C(C)C)C(=O)N3Cc2ccc3ccc(C(=N)N)cc3c2)CC1 (stereo not drawn) [Example 8] | 18.1 µM
8 | CC(=N)N1CCC(Oc2ccc3c(c2)/C(=C/c2ccccc2)C(=O)N3Cc2ccc3ccc(C(=N)N)cc3c2)CC1 [Example 9] | 26.6 µM
9 | CC(=N)N1CCC(Oc2ccc3c(c2)/C(=C/c2ccc(F)cc2)C(=O)N3Cc2ccc3ccc(C(=N)N)cc3c2)CC1 [Example 10] | 38.5 µM
10 | CC(=N)N1CCC(Oc2ccc3c(c2)/C(=C/c2ccc(Cl)cc2)C(=O)N3Cc2ccc3ccc(C(=N)N)cc3c2)CC1 [Example 11] | 28.7 µM
11 | CC(=N)N1CCC(Oc2ccc3c(c2)/C(=C/C(=O)O)C(=O)N3Cc2ccc3ccc(C(=N)N)cc3c2)CC1 [Example 12] | 62.1 µM
12 | CC(=N)N1CCC(Oc2ccc3c(c2)C(CC(=O)O)C(=O)N3Cc2ccc3ccc(C(=N)N)cc3c2)CC1 (stereo not drawn) [Example 13] | 37 µM

Each compound was assayed against PLASMIN (Homo sapiens, UniProt P00747) (assay: plasmin protease inhibition assay). Details: not given.
Sequence of PLASMIN (P00747 581-810 limits assumed, species assumed): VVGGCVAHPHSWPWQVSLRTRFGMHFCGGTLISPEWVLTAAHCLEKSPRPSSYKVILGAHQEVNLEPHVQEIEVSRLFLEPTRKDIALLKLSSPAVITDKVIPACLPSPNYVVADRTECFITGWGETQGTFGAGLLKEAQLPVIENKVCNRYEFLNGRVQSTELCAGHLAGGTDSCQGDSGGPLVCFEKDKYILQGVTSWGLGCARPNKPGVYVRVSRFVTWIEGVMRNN
Sequence of PLASMIN (P00747 97-580 limits assumed, species assumed): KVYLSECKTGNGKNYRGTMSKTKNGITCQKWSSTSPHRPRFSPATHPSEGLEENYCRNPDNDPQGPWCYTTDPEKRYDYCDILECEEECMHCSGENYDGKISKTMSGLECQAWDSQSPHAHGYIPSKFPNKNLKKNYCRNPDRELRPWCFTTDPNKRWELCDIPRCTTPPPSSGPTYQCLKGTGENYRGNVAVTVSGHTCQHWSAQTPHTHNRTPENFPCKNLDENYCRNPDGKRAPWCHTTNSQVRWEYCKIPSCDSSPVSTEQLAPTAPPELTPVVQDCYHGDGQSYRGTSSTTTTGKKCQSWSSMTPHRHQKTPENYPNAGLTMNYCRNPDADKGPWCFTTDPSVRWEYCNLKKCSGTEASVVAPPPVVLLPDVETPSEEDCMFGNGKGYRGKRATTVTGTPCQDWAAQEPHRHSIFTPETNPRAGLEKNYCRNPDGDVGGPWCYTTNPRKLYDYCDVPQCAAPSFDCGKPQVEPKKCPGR
Type: biochemical

Row | Compound | IC50
13 | CC(=N)N1CCC(Oc2ccc3c(c2)C(C(C)C)C(=O)N3Cc2ccc3ccc(C(=N)N)cc3c2)CC1 (stereo not drawn) [Example 8] | 628 nM
14 | CC(=N)N1CCC(Oc2ccc3c(c2)/C(=C/c2ccccc2)C(=O)N3Cc2ccc3ccc(C(=N)N)cc3c2)CC1 [Example 9] | 319 nM
15 | CC(=N)N1CCC(Oc2ccc3c(c2)/C(=C/c2ccc(F)cc2)C(=O)N3Cc2ccc3ccc(C(=N)N)cc3c2)CC1 [Example 10] | 407 nM
16 | CC(=N)N1CCC(Oc2ccc3c(c2)/C(=C/c2ccc(Cl)cc2)C(=O)N3Cc2ccc3ccc(C(=N)N)cc3c2)CC1 [Example 11] | 309 nM
17 | CC(=N)N1CCC(Oc2ccc3c(c2)/C(=C/C(=O)O)C(=O)N3Cc2ccc3ccc(C(=N)N)cc3c2)CC1 [Example 12] | 1250 nM
18 | CC(=N)N1CCC(Oc2ccc3c(c2)C(CC(=O)O)C(=O)N3Cc2ccc3ccc(C(=N)N)cc3c2)CC1 (stereo not drawn) [Example 13] | 2130 nM

These compounds were tested against T2, thrombin (Homo sapiens, UniProt P00734) (assay: thrombin amidolytic assay (Chromozym TH)). Details: read-out: IIA IC50.
T2 construct: proteolytic cleavage of its precursor prothrombin at the Arg-Thr linkage at positions 271-272 and the Arg-Ile linkage at positions 320-321
Type: biochemical
Description: (§1) The compounds of the present invention are dissolved in buffer to give solutions containing concentrations such that assay concentrations range from 0 to 100 μM. In the assays for thrombin, prothrombinase and factor Xa, a synthetic chromogenic substrate is added to a solution containing test compound and the enzyme of interest and the residual catalytic activity of that enzyme is determined spectrophotometrically. The IC50 of a compound is determined from the substrate turnover. The IC50 is the concentration of test compound giving 50% inhibition of: the substrate turnover.
(§2) The factor Xa and thrombin assays were performed at room temperature, in 0.02 M TrisHCl buffer, pH 7.5, containing 0.15 M NaCl. The rates of hydrolysis of the para-nitroanilide substrate S-2765 (Chromogenix) for factor Xa, and the substrate Chromozym TH (Boehringer Mannheim) for thrombin following preincubation of the enzyme with inhibitor for 5 minutes at room temperature, and were determined using the Softmax 96-well plate reader (Molecular Devices), monitored at 405 nm to measure the time dependent appearance of p-nitroaniline.

Row | Compound | IC50
19 | CC(=N)N1CCC(Oc2ccc3c(c2)C(C(C)C)C(=O)N3Cc2ccc3ccc(C(=N)N)cc3c2)CC1 (stereo not drawn) [Example 8] | 4.71 µM
20 | CC(=N)N1CCC(Oc2ccc3c(c2)/C(=C/c2ccccc2)C(=O)N3Cc2ccc3ccc(C(=N)N)cc3c2)CC1 [Example 9] | 28 µM
21 | CC(=N)N1CCC(Oc2ccc3c(c2)/C(=C/c2ccc(F)cc2)C(=O)N3Cc2ccc3ccc(C(=N)N)cc3c2)CC1 [Example 10] | 20 µM
22 | CC(=N)N1CCC(Oc2ccc3c(c2)/C(=C/c2ccc(Cl)cc2)C(=O)N3Cc2ccc3ccc(C(=N)N)cc3c2)CC1 [Example 11] | 16.1 µM
23 | CC(=N)N1CCC(Oc2ccc3c(c2)/C(=C/C(=O)O)C(=O)N3Cc2ccc3ccc(C(=N)N)cc3c2)CC1 [Example 12] | 240 µM
24 | CC(=N)N1CCC(Oc2ccc3c(c2)C(CC(=O)O)C(=O)N3Cc2ccc3ccc(C(=N)N)cc3c2)CC1 (stereo not drawn) [Example 13] | 500 µM

These compounds were tested against prothrombinase complex (Homo sapiens, UniProt P00742) (assay: prothrombinase inhibition assay, plasma free system). Details: read-out: IIASE IC50.
Sequence of prothrombinase complex (P00742 235-488 limits assumed): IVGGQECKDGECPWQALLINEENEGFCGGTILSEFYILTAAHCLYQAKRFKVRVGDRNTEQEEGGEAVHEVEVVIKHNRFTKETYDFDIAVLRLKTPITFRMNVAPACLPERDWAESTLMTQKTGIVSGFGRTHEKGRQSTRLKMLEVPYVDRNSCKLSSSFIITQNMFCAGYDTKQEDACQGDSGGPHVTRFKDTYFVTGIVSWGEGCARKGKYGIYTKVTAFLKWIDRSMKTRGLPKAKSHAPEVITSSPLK
Sequence of prothrombinase complex (P00742 41-179 limits assumed): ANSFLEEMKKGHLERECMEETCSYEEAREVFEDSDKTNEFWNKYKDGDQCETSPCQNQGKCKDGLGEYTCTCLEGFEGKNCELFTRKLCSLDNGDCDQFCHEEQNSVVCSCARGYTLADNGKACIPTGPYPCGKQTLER
Sequence of prothrombinase complex (P12259 29-737 partner limits assumed): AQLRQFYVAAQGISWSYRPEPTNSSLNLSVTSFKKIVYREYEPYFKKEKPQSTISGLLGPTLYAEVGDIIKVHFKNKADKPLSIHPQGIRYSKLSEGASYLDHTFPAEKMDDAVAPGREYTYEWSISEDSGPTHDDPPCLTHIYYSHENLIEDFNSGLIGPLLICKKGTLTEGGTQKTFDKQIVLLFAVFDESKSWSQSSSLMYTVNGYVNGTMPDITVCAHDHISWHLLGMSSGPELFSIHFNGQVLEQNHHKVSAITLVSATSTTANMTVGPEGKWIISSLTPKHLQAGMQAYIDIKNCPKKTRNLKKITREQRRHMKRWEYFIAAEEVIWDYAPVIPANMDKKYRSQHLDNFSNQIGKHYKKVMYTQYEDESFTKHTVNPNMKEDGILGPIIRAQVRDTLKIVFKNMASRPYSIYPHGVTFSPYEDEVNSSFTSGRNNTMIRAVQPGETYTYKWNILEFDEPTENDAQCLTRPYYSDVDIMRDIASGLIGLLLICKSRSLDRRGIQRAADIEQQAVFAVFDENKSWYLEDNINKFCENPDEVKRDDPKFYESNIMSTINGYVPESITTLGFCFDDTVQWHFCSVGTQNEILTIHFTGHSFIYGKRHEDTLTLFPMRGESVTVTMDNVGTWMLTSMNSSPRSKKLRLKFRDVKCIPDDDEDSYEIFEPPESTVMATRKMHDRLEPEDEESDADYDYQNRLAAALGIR
Sequence of prothrombinase complex (P12259 1574-2224 partner limits assumed): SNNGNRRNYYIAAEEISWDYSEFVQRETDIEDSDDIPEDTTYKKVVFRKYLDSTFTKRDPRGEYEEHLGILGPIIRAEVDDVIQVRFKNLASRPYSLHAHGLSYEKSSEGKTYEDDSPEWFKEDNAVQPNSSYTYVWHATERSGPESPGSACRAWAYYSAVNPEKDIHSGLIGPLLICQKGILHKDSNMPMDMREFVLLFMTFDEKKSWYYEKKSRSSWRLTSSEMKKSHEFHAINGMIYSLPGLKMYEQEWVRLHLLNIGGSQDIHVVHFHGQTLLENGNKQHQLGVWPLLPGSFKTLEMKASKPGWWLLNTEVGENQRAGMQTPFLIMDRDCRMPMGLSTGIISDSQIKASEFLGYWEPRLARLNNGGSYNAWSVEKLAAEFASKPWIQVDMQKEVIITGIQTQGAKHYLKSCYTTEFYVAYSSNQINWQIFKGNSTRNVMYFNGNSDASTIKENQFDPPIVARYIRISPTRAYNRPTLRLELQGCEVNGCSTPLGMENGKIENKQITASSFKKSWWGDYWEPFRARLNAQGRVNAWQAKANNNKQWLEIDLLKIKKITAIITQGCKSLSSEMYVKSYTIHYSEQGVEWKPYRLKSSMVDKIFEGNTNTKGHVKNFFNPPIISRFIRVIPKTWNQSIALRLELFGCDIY
Type: biochemical
Description: as §1
The prothrombinase inhibition assay was performed in a plasma free system with modifications to the method described by Sinha, U. et al., Thromb. Res., 75, 427-436 (1994). Specifically, the activity of the prothrombinase complex was determined by measuring the time course of thrombin generation using the p-nitroanilide substrate Chromozym TH. The assay consists of preincubation (5 minutes) of selected compounds to be tested as inhibitors with the complex formed from factor Xa (0.5 nM), factor Va (2 nM), phosphatidyl serine:phosphatidyl choline (25:75, 20 μM) in 20 mM TrisHCI buffer, pH 7.5, containing 0.15 M NaCl, 5 mM CaCl2 and 0.1% bovine serum albumin. Aliquots from the complex-inhibitor mixture were added to prothrombin (1 nM) and Chromozym TH (0.1 mM). The rate of substrate cleavage was monitored at 405 nm for two minutes. Eight different concentrations of inhibitor were assayed in duplicate. A standard curve of thrombin generation by an equivalent amount of untreated complex was used for determination of percent inhibition.

Row | Compound | IC50
25 | CC(=N)N1CCC(Oc2ccc3c(c2)C(C(C)C)C(=O)N3Cc2ccc3ccc(C(=N)N)cc3c2)CC1 (stereo not drawn) [Example 8] | 36.3 nM
26 | CC(=N)N1CCC(Oc2ccc3c(c2)/C(=C/c2ccccc2)C(=O)N3Cc2ccc3ccc(C(=N)N)cc3c2)CC1 [Example 9] | 8.4 nM
27 | CC(=N)N1CCC(Oc2ccc3c(c2)/C(=C/c2ccc(F)cc2)C(=O)N3Cc2ccc3ccc(C(=N)N)cc3c2)CC1 [Example 10] | 19.3 nM
28 | CC(=N)N1CCC(Oc2ccc3c(c2)/C(=C/c2ccc(Cl)cc2)C(=O)N3Cc2ccc3ccc(C(=N)N)cc3c2)CC1 [Example 11] | 17.4 nM
29 | CC(=N)N1CCC(Oc2ccc3c(c2)/C(=C/C(=O)O)C(=O)N3Cc2ccc3ccc(C(=N)N)cc3c2)CC1 [Example 12] | 117 nM
30 | CC(=N)N1CCC(Oc2ccc3c(c2)C(CC(=O)O)C(=O)N3Cc2ccc3ccc(C(=N)N)cc3c2)CC1 (stereo not drawn) [Example 13] | 90.4 nM

These compounds were tested against factor Xa (Homo sapiens, UniProt P00742) (assay: factor Xa amidolytic assay (chromogenic substrate S-2765)). Details: not given.
Sequence of factor Xa (P00742 235-488 limits assumed): as the sequence (P00742 235-488 limits assumed) above
Sequence of factor Xa (P00742 41-179 limits assumed): as the sequence (P00742 41-179 limits assumed) above
Type: biochemical
Description: as §1, §2

Row | Compound | IC50
31 | CC(=N)N1CCC(Oc2ccc3c(c2)C(C(C)C)C(=O)N3Cc2ccc3ccc(C(=N)N)cc3c2)CC1 (stereo not drawn) [Example 8] | 18.7 nM
32 | CC(=N)N1CCC(Oc2ccc3c(c2)/C(=C/c2ccccc2)C(=O)N3Cc2ccc3ccc(C(=N)N)cc3c2)CC1 [Example 9] | 2.82 nM
33 | CC(=N)N1CCC(Oc2ccc3c(c2)/C(=C/c2ccc(F)cc2)C(=O)N3Cc2ccc3ccc(C(=N)N)cc3c2)CC1 [Example 10] | 5.92 nM
34 | CC(=N)N1CCC(Oc2ccc3c(c2)/C(=C/c2ccc(Cl)cc2)C(=O)N3Cc2ccc3ccc(C(=N)N)cc3c2)CC1 [Example 11] | 5.76 nM
35 | CC(=N)N1CCC(Oc2ccc3c(c2)/C(=C/C(=O)O)C(=O)N3Cc2ccc3ccc(C(=N)N)cc3c2)CC1 [Example 12] | 17.4 nM
36 | CC(=N)N1CCC(Oc2ccc3c(c2)C(CC(=O)O)C(=O)N3Cc2ccc3ccc(C(=N)N)cc3c2)CC1 (stereo not drawn) [Example 13] | 53.6 nM

The compounds below were run on KALLIKREIN (assay: kallikrein protease inhibition assay). Details: not given.
Type: biochemical

Row | Compound | IC50
37 | CC(=N)N1CCC(Oc2ccc3c(c2)C(C(C)C)C(=O)N3Cc2ccc3ccc(C(=N)N)cc3c2)CC1 (stereo not drawn) [Example 8] | 334 nM
38 | CC(=N)N1CCC(Oc2ccc3c(c2)/C(=C/c2ccccc2)C(=O)N3Cc2ccc3ccc(C(=N)N)cc3c2)CC1 [Example 9] | 128 nM
39 | CC(=N)N1CCC(Oc2ccc3c(c2)/C(=C/c2ccc(F)cc2)C(=O)N3Cc2ccc3ccc(C(=N)N)cc3c2)CC1 [Example 10] | 201 nM
40 | CC(=N)N1CCC(Oc2ccc3c(c2)/C(=C/c2ccc(Cl)cc2)C(=O)N3Cc2ccc3ccc(C(=N)N)cc3c2)CC1 [Example 11] | 259 nM
41 | CC(=N)N1CCC(Oc2ccc3c(c2)/C(=C/C(=O)O)C(=O)N3Cc2ccc3ccc(C(=N)N)cc3c2)CC1 [Example 12] | 2420 nM
42 | CC(=N)N1CCC(Oc2ccc3c(c2)C(CC(=O)O)C(=O)N3Cc2ccc3ccc(C(=N)N)cc3c2)CC1 (stereo not drawn) [Example 13] | 1590 nM

Each compound was assayed against APC (Homo sapiens, UniProt P04070) (assay: APC protease inhibition assay). Details: not given.
Sequence of APC (P04070 212-461 limits assumed): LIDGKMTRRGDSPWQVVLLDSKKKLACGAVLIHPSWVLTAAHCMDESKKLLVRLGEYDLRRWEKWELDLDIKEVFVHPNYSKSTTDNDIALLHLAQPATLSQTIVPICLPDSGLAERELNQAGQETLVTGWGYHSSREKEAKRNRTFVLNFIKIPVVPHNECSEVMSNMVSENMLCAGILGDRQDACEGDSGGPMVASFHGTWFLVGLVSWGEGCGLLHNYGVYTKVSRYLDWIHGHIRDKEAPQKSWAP
Sequence of APC (P04070 43-197 limits assumed): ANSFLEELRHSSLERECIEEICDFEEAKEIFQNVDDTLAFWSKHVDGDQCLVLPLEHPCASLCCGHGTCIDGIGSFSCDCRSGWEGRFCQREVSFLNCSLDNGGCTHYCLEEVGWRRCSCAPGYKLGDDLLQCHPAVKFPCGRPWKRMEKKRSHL
Type: biochemical

Row | Compound | IC50
43 | CC(=N)N1CCC(Oc2ccc3c(c2)C(C(C)C)C(=O)N3Cc2ccc3ccc(C(=N)N)cc3c2)CC1 (stereo not drawn) [Example 8] | 389 nM
44 | CC(=N)N1CCC(Oc2ccc3c(c2)/C(=C/c2ccccc2)C(=O)N3Cc2ccc3ccc(C(=N)N)cc3c2)CC1 [Example 9] | 954 nM
45 | CC(=N)N1CCC(Oc2ccc3c(c2)/C(=C/c2ccc(F)cc2)C(=O)N3Cc2ccc3ccc(C(=N)N)cc3c2)CC1 [Example 10] | 1550 nM
46 | CC(=N)N1CCC(Oc2ccc3c(c2)/C(=C/c2ccc(Cl)cc2)C(=O)N3Cc2ccc3ccc(C(=N)N)cc3c2)CC1 [Example 11] | 1480 nM
47 | CC(=N)N1CCC(Oc2ccc3c(c2)/C(=C/C(=O)O)C(=O)N3Cc2ccc3ccc(C(=N)N)cc3c2)CC1 [Example 12] | 6660 nM
48 | CC(=N)N1CCC(Oc2ccc3c(c2)C(CC(=O)O)C(=O)N3Cc2ccc3ccc(C(=N)N)cc3c2)CC1 (stereo not drawn) [Example 13] | 9940 nM
